Experimental data reported in publication PMC11683478, “Bioprospecting of culturable marine biofilm bacteria for novel antimicrobial peptides” (iMeta, 2024).

Columns and labels:
Assay in all cases: Antibacterial screen at 200 μg/mL (cell density vs control)
Type in all cases: cell-based
Settings in all cases: peptide 200 μg/mL, CAMHB, 5 × 10^5 CFU/mL, 37°C, 12 h, OD600; control (no AMP) = 1; three biological replicates
[1] = tested on: Acinetobacter baumannii ATCC 19606
Procedure, shortened: (§1)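 For the MIC, the lowest peptide concentration without visible bacterial growth was recorded. Density screening used log-phase cells diluted to 5 × 10^5 CFU/mL in CAMHB with 200 μg/mL peptide, OD600 measured after 12 h incubation at 37°C.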

[2] = tested on: Bacillus subtilis ATCC 23857
Procedure, shortened: as §1

[3] = tested on: Escherichia coli ATCC 11775
Procedure, shortened: as §1

[4] = tested on: Micrococcus luteus ATCC 4698
Procedure, shortened: as §1

[5] = tested on: Salmonella bongori ATCC 43975
Procedure, shortened: as §1

[6] = tested on: Staphylococcus aureus ATCC 12600
Procedure, shortened: as §1

[7] = tested on: Vibrio alginolyticus xv22
Procedure, shortened: as §1

[8] = tested on: Vibrio owensii ems001
Procedure, shortened: as §1

Row | Sequence | cell density relative to control, A. baumannii ATCC 19606 [1] | cell density relative to control, B. subtilis ATCC 23857 [2] | cell density relative to control, E. coli ATCC 11775 [3] | cell density relative to control, M. luteus ATCC 4698 [4] | cell density relative to control, S. bongori ATCC 43975 [5] | cell density relative to control, S. aureus ATCC 12600 [6] | cell density relative to control, V. alginolyticus xv22 [7] | cell density relative to control, V. owensii ems001 [8]
1 | MRQGMCRIGGRL [Cand-55, chemically synthesized candidate AMP predicted from marine biofilm bacteria] | 0.845 | 0.908 | 0.915 | 1 | 1 | 0.793 | 0 | 1
2 | MRRFCCCRCSCCCWPS [Cand-25, chemically synthesized candidate AMP predicted from marine biofilm bacteria] | 1 | 1 | 0.835 | 1 | 0.847 | 0.422 | 1 | 0.067
3 | MRVGMCRIGGRL [Cand-79, chemically synthesized candidate AMP predicted from marine biofilm bacteria] | 0.975 | 0.837 | 0.73 | 1 | 0.975 | 0.728 | 0.8 | 1
4 | MSCDLQKVRGCLPRLIVHK [Cand-142, chemically synthesized candidate AMP predicted from marine biofilm bacteria] | 1 | 1 | 1 | 1 | 0.989 | 0.941 | 1 | 1
5 | MSKIKAKIGHLR [Cand-98, chemically synthesized candidate AMP predicted from marine biofilm bacteria] | 0.74 | 1 | 0.765 | 1 | 1 | 0.721 | 1 | 1
6 | MSPRICSVISCLMKLRC [Cand-11, chemically synthesized candidate AMP predicted from marine biofilm bacteria] | 0.023 | 1 | 0.967 | 0.931 | 0.522 | 0.019 | 0.018 | 0.023
7 | MTWPSRSRMWRTC [Cand-129, chemically synthesized candidate AMP predicted from marine biofilm bacteria] | 1 | 0.061 | 0.692 | 0.751 | 0.704 | 0.012 | 0.004 | 0.021
8 | MVKLLKKMVSLYH [Cand-122, chemically synthesized candidate AMP predicted from marine biofilm bacteria] | 0.907 | 0.002 | 0.642 | 0.728 | 0.455 | 0 | 1 | 0.188
9 | MWAVARGRR [Cand-195, chemically synthesized candidate AMP predicted from marine biofilm bacteria] | 1 | 0.676 | 1 | 0.987 | 1 | 0.945 | 1 | 0.958
10 | MWKLPKWRNGRRRGFKIPRW [Cand-109, chemically synthesized candidate AMP predicted from marine biofilm bacteria] | 0.01 | 0.012 | 0.002 | 0.02 | 0.019 | 0 | 0.019 | 0.039
11 | MWTIYSGIKRSLHYCRRRGYYCSRYGYYS [Cand-43, chemically synthesized candidate AMP predicted from marine biofilm bacteria] | 0.385 | 0.67 | 0 | 0.297 | 0 | 0.031 | 0.124 | 0.215
12 | MWTVRPRICAARGRL [Cand-172, chemically synthesized candidate AMP predicted from marine biofilm bacteria] | 1 | 0 | 1 | 0.9 | 0.898 | 0 | 0 | 0
13 | MWWSKSIHQACFTRYRGYCRWCCTFSIRSCRY [Cand-3, chemically synthesized candidate AMP predicted from marine biofilm bacteria] | 0.702 | 1 | 0.786 | 1 | 0.438 | 0 | 0 | 0
14 | MWWSKSIHQASFTRYRSYCRGCCTFSIRSCRYKRRII [Cand-180, chemically synthesized candidate AMP predicted from marine biofilm bacteria] | 0 | 0 | 0 | 0 | 0.025 | 0.107 | 0 | 0
15 | MYSVWPKSLRSVAGRGPKHRC [Cand-139, chemically synthesized candidate AMP predicted from marine biofilm bacteria] | 0.959 | 0.931 | 0.764 | 1 | 0.426 | 0 | 0.013 | 0.342
